# Source: US20250339426A1, “GCN2 MODULATOR FOR TREATING CANCER” (HIBERCELL, INC., priority 2022, published 2025)
# What was measured:
# [1] = test system: HIF1α and HIF2a in FaDu tumors; test: Tumor IHC, FaDu tumors; assay type: in vivo, BALB/c nude mice; settings: end of study
# Description: Immunohistochemical analysis was carried out on tumors that were collected at the end of the study described in Example 6. Formalin-fixed paraffin-embedded samples were sectioned at 5 μm thickness and mounted on Superfrost Plus microscope slides (Fisher Scientific). All immunohistochemical (IHC) staining was performed on Bond Rx auto-stainer (Leica Biosystems) using the conventional TSA-amplified detection system. Primary antibodies used were as follows: a-ASNS (Cell Signaling Technology #92479), a-PUMA (Cell Signaling Technology #98672), a-PSAT1 (Proteintech #10501-1-AP), a-PHGDH (Proteintech #14719-1-AP), HIF-1a-Novus Biologicals NB 100-479, HIF-2a-Novus Biologicals NB100-122SS, and GLUT-1-EMB Biosciences 07-1401. […]
# Slides were imaged with Aperio Versa 200 (Leica Biosystems) whole-slide scanner using 10×/0.32NA objective, and the data were analyzed using custom-written macros in ImageJ/FIJI (NIH). Briefly, 150 μm of outer edges of the tumor sections and necrotic regions (determined by lack of 4′,6-diamidino-2-phenylindole (DAPI) signal or presence of condensed DNA) were eliminated from the analysis. […] Scans of immune-staining were processed to remove background, then total intensity value above appropriate threshold levels was measured and normalized to tissue area. […]
# [2] = test system: oxidative phosphorylation pathway in FaDu tumors; test: Non-targeted proteomic analysis of FaDu tumors; assay type: in vivo, mice
# Description: FaDu tumor bearing mice were treated with vehicle or HC-7366 (1, 3, or 30 mg/kg) twice a day orally for three days, and on the morning of Day 4 an AM dose was administered and tumors and plasma were collected 1 hr after dose. Tumor and plasma samples were extracted and split into equal parts for analysis on LC/MS/MS and Polar LC platforms. Proprietary software was used to match ions to an in-house library of standards for metabolite identification and for metabolite quantitation by peak area integration (Metabolon). Proteomic analysis on tumors was performed at MS Bioworks. The equivalent of 3 μg of peptide from each pooled fraction was analyzed by nano LC-MS/MS with a Waters M-Class HPLC system interfaced to a ThermoFisher Fusion Lumos mass spectrometer. Histograms show metabolite levels of treatment groups normalized to vehicle control (FIGS. 115-122).
# FaDu tumor bearing mice were treated with HC-7366 at 3 and 30 mg/kg twice a day for four days. Tumors were harvested for non-targeted proteomic analysis.
# [3] = test system: CTG-2227; test: Ex vivo AML PDX cell viability (Cell Titer Glo); assay type: cell-based; settings: Homo sapiens, 144 h; PDX model CTG-2227, 6 days; read-out: HC-7366 EC50
# Description: (§1) . Cell viability was assayed after treating PDX models with DMSO or HC-7366 for 6 days using a plate-based luminescence assay (Cell Titer Glo). […]
# (§2) EC50 values were calculated to the bottom of the curve and are provided below. Viability curves are provided for the models CTG-2229 (FIG. 81), CTG-3680 (FIG. 82), CTG-3667 (FIG. 83), CTG-2456 (FIG. 84), CTG-2457 (FIG. 85), and CTG-2454 (FIG. 86).
# [4] = test system: CTG-2700; test: Ex vivo AML PDX cell viability (Cell Titer Glo); assay type: cell-based; settings: Homo sapiens, 144 h; PDX model CTG-2700, 6 days; read-out: HC-7366 EC50
# Description: as §1, §2
# [5] = test system: CTG-3440; test: Ex vivo AML PDX cell viability (Cell Titer Glo); assay type: cell-based; settings: Homo sapiens, 144 h; PDX model CTG-3440, 6 days; read-out: HC-7366 EC50
# Description: as §1, §2
# [6] = test system: CTG-2455; test: Ex vivo AML PDX cell viability (Cell Titer Glo); assay type: cell-based; settings: Homo sapiens, 144 h; PDX model CTG-2455, 6 days; read-out: HC-7366 EC50
# Description: as §1, §2
# [7] = test system: CTG-3438; test: Ex vivo AML PDX cell viability (Cell Titer Glo); assay type: cell-based; settings: Homo sapiens, 144 h; PDX model CTG-3438, 6 days; read-out: HC-7366 EC50
# Description: as §1, §2
# [8] = test system: CTG-2229; test: Ex vivo AML PDX cell viability (Cell Titer Glo); assay type: cell-based; settings: Homo sapiens, 144 h; PDX model CTG-2229, 6 days; read-out: HC-7366 EC50
# Description: as §1, §2
# [9] = test system: CTG-3674; test: Ex vivo AML PDX cell viability (Cell Titer Glo); assay type: cell-based; settings: Homo sapiens, 144 h; PDX model CTG-3674, 6 days; read-out: HC-7366 EC50
# Description: as §1, §2
# [10] = test system: CTG-2235; test: Ex vivo AML PDX cell viability (Cell Titer Glo); assay type: cell-based; settings: Homo sapiens, 144 h; PDX model CTG-2235, 6 days; read-out: HC-7366 EC50
# Description: as §1, §2
# [11] = test system: CTG-3680; test: Ex vivo AML PDX cell viability (Cell Titer Glo); assay type: cell-based; settings: Homo sapiens, 144 h; PDX model CTG-3680, 6 days; read-out: HC-7366 EC50
# Description: as §1, §2
# [12] = test system: CTG-2456; test: Ex vivo AML PDX cell viability (Cell Titer Glo); assay type: cell-based; settings: Homo sapiens, 144 h; PDX model CTG-2456, 6 days; read-out: HC-7366 EC50
# Description: as §1, §2
# [13] = test system: CTG-2238; test: Ex vivo AML PDX cell viability (Cell Titer Glo); assay type: cell-based; settings: Homo sapiens, 144 h; PDX model CTG-2238, 6 days; read-out: HC-7366 EC50
# Description: as §1, §2
# [14] = test system: CTG-3439; test: Ex vivo AML PDX cell viability (Cell Titer Glo); assay type: cell-based; settings: Homo sapiens, 144 h; PDX model CTG-3439, 6 days; read-out: HC-7366 EC50
# Description: as §1, §2
# [15] = test system: CTG-3441; test: Ex vivo AML PDX cell viability (Cell Titer Glo); assay type: cell-based; settings: Homo sapiens, 144 h; PDX model CTG-3441, 6 days; read-out: HC-7366 EC50
# Description: as §1, §2
smiles,measurement,setting,value
"CNC(=O)c1ncn2cc(-c3c(F)ccc(NS(=O)(=O)c4cc(Cl)cnc4OC)c3F)ncc12 [HC-7366, 6-(3-((5-chloro-2-methoxypyridine)-3-sulfonamido)-2,6-difluorophenyl)-N-methylimidazo[1,5-a]pyrazine-1-carboxamide]",HIF1α protein levels,[1],significantly reduced
same,HIF2a protein levels,[1],significantly reduced
same,"oxidative phosphorylation pathway, pathway analysis (IPA)","[2]; 3 mg/kg twice a day, four days",strong repression
same,protein subunits of the electron transport chain,"[2]; 3 mg/kg, relative to vehicle",decreased
same,EC50,[3],39.9 µM
same,EC50,[4],333 µM
same,EC50,[5],55.2 µM
same,EC50,[6],35.7 µM
same,EC50,[7],196 µM
same,EC50,[8],34 µM
same,EC50,[9],129 µM
same,EC50,[10],103 µM
same,EC50,[11],231 µM
same,EC50,[12],31.8 µM
same,EC50,[13],123 µM
same,EC50,[14],349 µM
same,EC50,[15],102 µM
